The nature of data set [1]: solubility. In kind it is physicochemical.
In data set [2] the test system is AZT-resistant strain HIV-1 018c. Particulars: PBMC, AZT-resistant HIV-1 018c.
Data set [3] deals with human T lymphocytes MT-4. The data set can be described thus: cytotoxicity by MTT in MT-4 culture. The following applies: MT-4 culture with HIV-1 IIIB, 96 hours.
In data set [4] the test system is HIV-1 IIIB. The data set can be described thus: HIV-1 P24 antigen inhibition in MT-4 culture.
Description: MT-4 cell suspension was counted, then 100 μl of suspension (2×10^5 cells/ml) was seeded into 96-well cell culture plate, 50 μl liquor of 2× diluted medicament or 4-5× diluted positive medicament AZT (8 concentrations) was added, respectively, and 50 μl virus suspension with proper titer was add concurrently. Each dilution was repeated in 3 wells and cell control group and virus control group were established. They were incubated at 37° C., 5% CO2 saturated humidity incubator and the cytopathy was observed everyday. On the fourth day after administration (96 hours), the supernatants were sucked out and stored at −20° C. for measuring HIV-1-P24 antigen titer. Accordingly, the inhibition effect of medicament could be calculated, and the cells were dyed with MTT to measure the cytotoxicity.
The medicated cell supernatants infected with MT-4 were diluted after being thawed. HIV-1 P24 titer was measured according to the operation procedure described in HIV-1 P24 antigen kit.
[formula] 2.2.2 Reed & Muench Method for Calculating CC50 and EC50 of Medicament in Cell Culture
[formula] 2.2.3. Calculation Method of Selection Index (SI) of HIV-1 P24 Antigen in Cell Culture SI=CC50/EC50 3.
Data set [5] has as its system human peripheral blood mononuclear cell (PBMC). In words: cytotoxicity by MTT in HIV-infected PBMC culture. The following applies: 96 hours.
Description: (§1) 10 μl MTT dye (5 mg/ml) was added to each well, and then incubated at 37° C., 5% CO2 saturated humidity incubator for 4 hours. 100 μl 50% DMF-17% Triton X-100 destainer was added to each well and the mixtures were kept at 37° C. overnight. Then OD570nm values were measured at 570 nm with a luminometer to calculate the median cytotoxicity concentration of medicament (CC50).
(§2) The fresh normal human venous blood was taken and PBMC was separated using FiColl separation solution. The 1.5×10^5 cells/ml suspension prepared with the culture fluid containing PHA was seeded into the culture bottle and incubated in the incubator (37° C., 5% CO2) for 72 hours. The cells were collected with cell scrapers then were infected with the 10^−2 viral liquid of AZT-sensitive (018a) or AZT-resistant (018c) viral strain. After absorption for 2 hours, the non-absorbed viruses were washed with serum-free 1640 culture medium. The infected cells were prepared into 1×10^6 cells/ml with the culture fluid, and then were seeded into the 96-well culture board in 100 μl/well. At the same time, 100 μl liquor of 2× diluted AKJ-2 or 5× diluted positive control medicament AZT with different concentrations was added. The cell control group and virus control group were established. Four days (96 hours) after incubating under 37° C., 5% CO2, the supernatants were sucked out and stored at −20° C. to measure HIV-1-P24 antigen titer and calculate the inhibition effect of the medicament. The cells were dyed with MTT to measure the cytotoxicity.
Data set [6] concerns AZT-sensitive strain HIV-1 018a. In words: HIV-1 P24 antigen inhibition in PBMC, AZT-sensitive strain.
The subject of data set [7] is HIV-1 IIIB. In words: HIV-1 P24 antigen inhibition in chronically infected H9 cells.
Description: HIV-1 P24 antigen titer was measured according to the operation procedures stated in HIV-1 P24 antigen kit.
100 μl (2×10^5 cells/ml) of H9 cells suspension was seeded into 96-well cell culture plate. Then, 100 μl liquor of 2× diluted medicament or 4-5× diluted positive AZT (8 concentrations) was added. Each dilution was repeated in three wells. The cell control group was established. The cells were incubated in the incubator (37° C., 5% CO2, saturated humidity) and the cytopathy was observed everyday. Four days (96 hours) after administration, the supernatants were sucked out and stored at −20° C. to measure HIV-1-P24 antigen titer. The inhibition effect of the medicament was determined. The cells were dyed with MTT to measure the cytotoxicity.
2.2.2 Reed & Muench Method for Calculating CC50 and EC50 of Medicament in Cell Culture
Calculation Method of Selection Index (SI) of HIV-1 P24 Antigen in Cell Culture SI=CC50/EC50 3.
Data set [8] concerns human T lymphocytes H9 chronically infected with HIV-1 IIIB. The data set can be described thus: cytotoxicity by MTT in H9 cells chronically infected with HIV-1 IIIB. The following applies: H9 cell chronically infected with HIV-1 IIIB, 96 hours.
In data set [9] the test system is mycoplasma pneumoniae. The data set can be described thus: bacteriostatic effect on mycoplasma pneumoniae. In kind it is cell-based.
Data set [10] has as its system AZT-sensitive strain HIV-1 018a.
Data set [11] concerns AZT-resistant strain HIV-1 018c. The data set can be described thus: microbe, parasite or virus in culture. The following applies: Human immunodeficiency virus 1, PBMC, 96 h, read-out: Median effective concentration (EC50), HIV-1 P24 antigen.
A short description of data set [12]: cytotoxicity by MTT in HIV-infected PBMC culture. The following applies: human, Median cytotoxicity concentration (CC50).
Description: as §1, §2
Data set [13] has as its system candida and cryptococcus. In words: in vitro antifungal test, candida and cryptococcus. It counts as cell-based.
The subject of data set [14] is dermatophyte. The data set can be described thus: in vitro antifungal test, dermatophyte. In kind it is cell-based.
In data set [15] the test system is Pseudallescheria boydii. In words: in vitro antifungal test, Pseudallescheria boydii. It counts as cell-based.
For data set [16], the system named is aspergillus fumigatus, cryptococcus and red trichophyton. In words: in vitro antifungal test, aspergillus fumigatus, cryptococcus and red trichophyton. In kind it is cell-based.
The test system of data set [17] is Staphylococcus epidermidis. The data set can be described thus: comparative MIC experiment, Staphylococcus epidermidis. In kind it is cell-based.
In data set [18] the test system is Serratia marcescens. In words: comparative MIC experiment, Serratia marcescens. In kind it is cell-based.
Data set [19] relates to Bacteroid. In words: comparative MIC experiment, Bacteroid. It counts as cell-based.
In data set [20] the test system is Candida albicans. In words: comparative MIC experiment, Candida albicans. It counts as cell-based.
Setting [21] is: PBMC infected with AZT-resistant HIV-1 018c.
Setting [22] is: PBMC infected with AZT-sensitive HIV-1 018a.

The values below come from US7897640B2 (priority 2003, dated 2011).

≈ marks a conversion by molar mass, not a printed value. Like-named read-outs stand apart in the source and are kept apart here. Where only a bound is given, the exact number is not on record here.

In general, CC50 refers to the concentration that lowers cell viability or growth by half. The low end stands for greater toxicity to the cells, the high end for lower toxicity to the cells. As a reminder, the MIC is the lowest concentration found to suppress growth. Low values mean greater potency, high ones weaker potency. One may read the MIC90 as the lowest concentration that inhibits either 90% of growth or 90% of the strains tested, depending on the study. Read a low MIC90 as higher susceptibility.

With `CC(=O)O[C@H](CC=C(C)C)C1=CC(=O)c2c(O)ccc(O)c2C1=O` [acetylshikonin], the “solubility in DMSO” value in data set [1] (DMSO) is listed as “soluble”. For the same molecule, the solubility in water entry in data set [1] (water) is given as “insoluble”. The “Median effective concentration (EC50), HIV-1 P24 antigen” value in data set [2] (96 hours) is above 1.25 ± 0 µg/mL; in data set [4] (MT-4, HIV-1 IIIB, 96 hours), 0.20 ± 0.03 µg/mL; in data set [6] (PBMC, AZT-sensitive HIV-1 018a, 96 hours), 1.18 ± 0.03 µg/mL; in data set [7] (H9 cell chronically infected with HIV-1 IIIB, 96 hours) it was above 0.25 ± 0 µg/mL. Further, the “Median cytotoxicity concentration (CC50)” value came out at 0.49 ± 0.06 µg/mL in data set [3], 5.83 ± 0.38 µg/mL in data set [5] (setting [21]), 7.69 ± 0.19 µg/mL in data set [5] (setting [22]) and 1.77 ± 0.13 µg/mL in data set [8]. Also, the “Selection index (CC50/EC50)” value in data set [4] (MT-4, HIV-1 IIIB) is on record as 2.45 ± 0.51; in [6] (PBMC, AZT-sensitive HIV-1 018a) it was 6.50 ± 0.08. Also, the “inhibition effect on HIV-1 IIIB chronically-infected H9 cells” value in data set [7] (two lots of tests) is on record as “no inhibition effect”.

On to `CC[C@H]1OC(=O)[C@H](C)[C@@H](O[C@H]2C[C@@](C)(OC)[C@@H](O)[C@H](C)O2)[C@H](C)[C@@H](O[C@@H]2O[C@H](C)C[C@H](N(C)C)[C@H]2O)[C@](C)(O)C[C@@H](C)C(=O)[C@H](C)[C@@H](O)[C@]1(C)O` [erythrocin, reference compound], for which the “concentration of equivalent inhibitory effect” value in [9] (comparator) came to 0.1925 µg/mL.

On to `Cc1cn([C@H]2C[C@H](N=[N+]=[N-])[C@@H](CO)O2)c(=O)[nH]c1=O` [AZT, Zidovudine, reference compound], for which the “Selection index (CC50/EC50)” value in data set [10] stood at 10275.78 ± 1530.22; in [2] it was 1895.40 ± 479.53; in [4] (MT-4, HIV-1 IIIB), 1808.33 ± 723.07; in data set [7] (H9 cell chronically infected with HIV-1 IIIB), 83.65 ± 37.96. Further, the EC50 was 0.05 ± 0.01 µg/mL (≈ 0.187 µM) in data set [11]; 0.09 ± 0.003 µg/mL (≈ 0.337 µM) in data set [4] (Human immunodeficiency virus 1, IIIB, 96 h, read-out: Median effective concentration (EC50), HIV-1 P24 antigen); below 0.0064 µg/mL in data set [6] (Human immunodeficiency virus 1, PBMC, 96 h, read-out: Median effective concentration (EC50), HIV-1 P24 antigen); 1.08 ± 0.24 µg/mL (≈ 4.04 µM) in [7] (Human immunodeficiency virus 1, IIIB, H9, 96 h, read-out: Median effective concentration (EC50), HIV-1 P24 antigen). Moreover, the values for the CC50 at 96 h in data set [12] (setting [21]) and in data set [12] (setting [22]) were 88 ± 15.5 µg/mL (≈ 329 µM) and 77.2 ± 20.9 µg/mL (≈ 289 µM), respectively.

On to `CC(C)=CCC(OC(=O)C=C(C)C)C1=CC(=O)c2c(O)ccc(O)c2C1=O` (stereo not drawn) [β,β-dimethylacrylshikonin], for which the MIC in data set [13] was 2.08 to 33.3 µg/mL; in data set [14], 4.16 to 8.32 µg/mL; in [15] it was 4.16-8.32 μg/mi; in data set [16], 3.0625 to 250 µg/mL; in data set [17], 0.391 µg/mL (≈ 1.06 µM); in [18] it was 0.781 µg/mL (≈ 2.11 µM). Moreover, the figures for the MIC in data set [19], in data set [20] and in [9] were 0.391 µg/mL (≈ 1.06 µM), 3.9062 µg/mL (≈ 10.5 µM) and 2 µg/mL (≈ 5.4 µM), respectively. The MIC90 in [13] stood at 33.3 µg/mL (≈ 89.9 µM); in [14], 4.16 µg/mL (≈ 11.2 µM).
